Assay: Displacement of thioflavin T from insulin amyloid fibrils by thioflavin-T fluorescent dye assay

| SMILES | IC50 |
| --- | --- |
| CN(C)c1ccc(/C=C/c2sc3cc([N+](=O)[O-])ccc3[n+]2C)cc1 | 12 nM |
| CN(C)c1ccc(/C=C/c2sc3c(Cc4ccccc4)c(Cc4ccccc4)ccc3[n+]2C)cc1 | 41 nM |
| Cc1ccc2c(c1)sc(/C=C/c1ccc(N(C)C)cc1)[n+]2C | 6 nM |
| CCCC[n+]1c(/C=C/c2ccc(N(C)C)cc2)sc2ccccc21 | 27 nM |
| CN(C)c1ccc(/C=C/c2nc3cc(Cl)ccc3s2)cc1 | > 100000 nM |
| CN(C)c1ccc(/C=C/c2sc3ccccc3[n+]2CCCC(c2ccccc2)c2ccccc2)cc1 | 210 nM |
| CN(C)c1ccc(/C=C/c2sc3ccc(Cl)cc3[n+]2C)cc1 | 5.2 nM |
| CN(C)c1ccc(/C=C/c2sc3ccccc3[n+]2CCCOCc2ccccc2)cc1 | 52 nM |
| Cc1ccc2c(c1)sc(/C=C/c1ccc(N(C)C)cc1)[n+]2Cc1ccccc1 | 50 nM |
| CN(C)c1ccc(/C=C/c2sc3ccccc3[n+]2Cc2ccc(-c3ccccc3)cc2)cc1 | 34 nM |
| CN(C)c1ccc(/C=C/c2sc3ccccc3[n+]2CCCCCOc2ccccc2)cc1 | 80 nM |
| CN(C)c1ccc(/C=C/c2sc3ccc(F)cc3[n+]2Cc2ccccc2)cc1 | 32 nM |
| CN(C)c1ccc(/C=C/c2sc3ccccc3[n+]2C/C=C/c2ccccc2)cc1 | 80 nM |
| CCCCCCC[n+]1c(/C=C/c2ccc(N(C)C)cc2)sc2ccccc21 | 83 nM |
| CCCCCCC[n+]1c(/C=C/c2ccc(-n3cccc3)cc2)sc2ccccc21 | 42 nM |
| CN(C)c1ccc(/C=C/c2sc3ccccc3[n+]2Cc2ccccc2)cc1 | 12 nM |
| CCCCCCC[n+]1c(/C=C/c2ccc(N(C)C)c3ccccc23)sc2ccccc21 | 40 nM |
| CN(C)c1ccc(/C=C/c2sc3ccc(Cc4ccccc4)c(Cc4ccccc4)c3[n+]2C)cc1 | 41 nM |

| SMILES | IC50 |
| --- | --- |
| CCCCCCC[n+]1c(/C=C/c2ccc(N(C)C)cc2)sc2cc(OC)ccc21 | 40 nM |
| CN(C)c1ccc(/C=C/c2sc3ccccc3[n+]2Cc2cccc(Oc3ccccc3)c2)cc1 | 180 nM |
| CN(C)c1ccc(/C=C/c2sc3ccccc3[n+]2Cc2ccc3ccccc3c2)cc1 | 13 nM |
| CN(C)c1ccc(/C=C/c2sc3ccccc3[n+]2Cc2ccccc2-c2ccccc2)cc1 | 80 nM |
| Nc1ccc(/N=N/c2nc3ccccc3s2)c2ccccc12 | 130 nM |
| CCCCCCC[n+]1c(/C=C/c2ccc(N(CCCC)CCCC)cc2)sc2ccccc21 | 90 nM |
| CN(C)c1ccc(/N=N/c2nc3ccccc3s2)cc1 | 1200 nM |
| COc1ccc2nc(/N=N/c3ccc(N(C)C)cc3)sc2c1 | 700 nM |
| COc1ccc2c(c1)sc(/C=C/c1ccc(N(C)C)c3ccccc13)[n+]2C | 26 nM |
| Cc1ccc2sc(/C=C/c3ccc(N(C)C)cc3)[n+](C)c2c1 | 7.5 nM |
| CC[n+]1c(/C=C/c2ccc(N(C)C)cc2)sc2ccccc21 | 6 nM |
| CN(C)c1ccc(/N=N/c2nc3ccc(Cl)cc3s2)cc1 | 1300 nM |
| CN(C)c1ccc(/C=C/c2sc3ccccc3[n+]2Cc2ccc(F)cc2)cc1 | 42 nM |
| CCCCCCC[n+]1c(/C=C/c2ccc(N(CC)CC)cc2)sc2ccccc21 | 120 nM |
| COc1ccc2nc(/N=N/c3ccc(N(C)C)c4ccccc34)sc2c1 | 340 nM |
| COc1ccc2c(c1)sc(/N=N/c1ccc(N(C)C)cc1)[n+]2C | 10 nM |
| CN(C)c1ccc(/N=N/c2sc3ccccc3[n+]2C)cc1 | 60 nM |
